Results as given in paper PMC12040169 (PLOS Biology, 2025).

Experiment: in vitro
Conditions: human, hela cells, % viability

Cc1nnsc1C(=O)N[C@H]1CCN2C(=O)N(CCCl)C(=O)[C@@H]2C1 [CBK289550]
viability at 28.5 h, 10 µM (bulk resorufin, single well): 95.6%

O=C(N[C@H]1CCN2C(=O)N(CCCl)C(=O)[C@@H]2C1)c1ccncc1 [CBK289551]
viability at 28.5 h, 10 µM (bulk resorufin, single well): 88.3%

COCC(=O)N[C@H]1CCN2C(=O)c3cc(-c4ccccc4F)ccc3NC(=O)[C@@H]2C1 [CBK289553]
viability at 28.5 h, 10 µM: 95.6%

CC(C)C[C@H]1NC(=O)[C@@H]2C[C@@H](NC(=O)CS(=O)(=O)c3ccccc3)CCN2C1=O [CBK289554]
viability at 28.5 h, 10 µM: 89.1%

COc1cc(SC)ccc1C(=O)N[C@H]1CCN2C(=O)[C@@H](CC(=O)O)NC(=O)[C@@H]2C1 [CBK289555]
viability at 28.5 h, 10 µM: 108%

O=C(N[C@H]1CCN2C(=O)N(c3ccc(Br)cc3)C(=O)[C@@H]2C1)c1cccnc1 [CBK289557]
viability at 28.5 h, 10 µM: 104%

COc1ccc(-c2ccc3c(c2)C(=O)N2CC[C@H](N)C[C@H]2C(=O)N3)c(OC)c1 [CBK289560]
viability at 28.5 h, 10 µM: 104%

COCC(=O)N[C@H]1CCN2C(=O)c3cc(-c4cccc(C)c4C)ccc3NC(=O)[C@@H]2C1 [CBK289562]
viability at 28.5 h, 10 µM: 90.7%

O=C(N[C@H]1CCN2C(=O)c3cc(-c4ccsc4)ccc3NC(=O)[C@@H]2C1)c1cccs1 [CBK289563]
viability at 28.5 h, 10 µM: 103%

CNCC(=O)N[C@H]1CCN2C(=O)c3ccc(Cl)cc3NC(=O)[C@@H]2C1 [CBK289566]
viability at 28.5 h, 10 µM: 83.6%

C=CCNC(=O)N[C@H]1CCN2C(=O)c3ccccc3NC(=O)[C@@H]2C1 [CBK289568]
viability at 28.5 h, 10 µM: 102%

C=CCNC(=O)N[C@H]1CCN2C(=O)c3ccc(Cl)cc3NC(=O)[C@@H]2C1 [CBK289569]
viability at 28.5 h, 10 µM: 95.9%

C[C@]1(CO)[C@H]2Cc3sc(-c4ccccc4)nc3[C@@H](CC(=O)O)[C@]2(C)CC[C@H]1O [CBK289572]
viability at 28.5 h, 10 µM: 84.5%

COC[C@@H]1OC[C@@]2(C)C3CC[C@@H](O)[C@@H](CC(=O)N4CCCCC4)[C@]3(C)CC[C@H]2O1 (some centres unmarked) [CBK289573]
viability at 28.5 h, 10 µM: 88.3%

COC[C@@H]1OC[C@@]2(C)C3CC[C@@H](O)[C@@H](CC(=O)NCc4ccccc4)[C@]3(C)CC[C@H]2O1 (some centres unmarked) [CBK289574]
viability at 28.5 h, 10 µM: 79.1%

C[C@]1(CO)C2CC[C@H]3OC(=O)C[C@H]3[C@]2(C)CC[C@H]1OC(=O)Nc1ccccc1 (some centres unmarked) [CBK289577]
viability at 28.5 h, 10 µM: 84.5%

CC(C)NC(=O)N1CCN2C(=O)N(c3ccccc3)C(=O)[C@@H]2C1 [CBK289579]
viability at 28.5 h, 10 µM: 99.4%

O=C(CS(=O)(=O)c1ccccc1)N1CCN2C(=O)N(C3CCCCC3)C(=O)[C@H]2C1 [CBK289580]
viability at 28.5 h, 10 µM: 89.6%

O=C1Nc2ccc(Br)cc2C(=O)N2CCNC[C@H]12 [CBK289583]
viability at 28.5 h, 10 µM: 85.1%

O=C1Nc2ccc(-c3cccc(C(F)(F)F)c3)cc2C(=O)N2CCN(C(=O)C3CC3)C[C@H]12 [CBK289585]
viability at 28.5 h, 10 µM: 79.4%

O=C1Nc2cc(Cl)ccc2C(=O)N2CCN(C(=O)C3CCCCC3)C[C@H]12 [CBK289586]
viability at 28.5 h, 10 µM: 87.1%

COCC(=O)N1CCN2C(=O)c3ccc(Cl)cc3NC(=O)[C@H]2C1 [CBK289588]
viability at 28.5 h, 10 µM: 84.6%

O=C1Nc2ccc(Br)cc2C(=O)N2CCN(C(=O)c3ccccc3)C[C@H]12 [CBK289589]
viability at 28.5 h, 10 µM: 121%

O=C1Nc2ccc(-c3ccc(Cl)cc3)cc2C(=O)N2CCN(C(=O)c3cccnc3)C[C@H]12 [CBK289590]
viability at 28.5 h, 10 µM: 107%

O=C1Nc2ccc(-c3ccccc3F)cc2C(=O)N2CCN(C(=O)c3cccnc3)C[C@H]12 [CBK289591]
viability at 28.5 h, 10 µM: 111%

CC(C)NC(=O)N1CCN2C(=O)c3cc(-c4ccc(Cl)cc4)ccc3NC(=O)[C@H]2C1 [CBK289596]
viability at 28.5 h, 10 µM: 79.5%

COc1ccc(C[C@@H]2NC(=O)[C@@H]3CN(C(=O)c4ccc(OC)cc4)CCN3C2=O)cc1 [CBK289598]
viability at 28.5 h, 10 µM: 94.1%

CN(C)c1ccc(C(=O)N2CCN3C(=O)[C@H](Cc4ccc(F)cc4)NC(=O)[C@H]3C2)cc1 [CBK289601]
viability at 28.5 h, 10 µM: 109%

O=C1N[C@@H](Cc2ccc(F)cc2)C(=O)N2CCN(C(=O)N3CCOCC3)C[C@H]12 [CBK289603]
viability at 28.5 h, 10 µM: 109%

COCC(=O)N1CCN2C(=O)[C@@H]3C[C@@H](OCc4ccc(F)cc4)CN3C(=O)[C@@H]2C1 [CBK289605]
viability at 28.5 h, 10 µM: 99.1%

COC(=O)[C@@H]1CN(C(=O)Nc2ccccc2)CCN1C(C)=O [CBK289606]
viability at 28.5 h, 10 µM: 88%

COC(=O)[C@@H]1CN(C(=O)Nc2ccccc2)CCN1C(=O)C1CCCCC1 [CBK289607]
viability at 28.5 h, 10 µM: 91%

COCC(=O)N1CCN(C(=O)c2cccc(F)c2)C[C@H]1C(=O)OC [CBK289608]
viability at 28.5 h, 10 µM: 89.4%

CC(C)N1C(=O)[C@@H]2CN(C(=O)C3CCCC3)CCN2C1=O [CBK289612]
viability at 28.5 h, 10 µM: 88.8%

COCC(=O)N1CCN(C(=O)N2CCOCC2)C[C@@H]1C(=O)OC [CBK289613]
viability at 28.5 h, 10 µM: 109%

COCC(=O)N1CCN(C(=O)c2cccs2)[C@@H](C(=O)OC)C1 [CBK289614]
viability at 28.5 h, 10 µM: 111%

COc1cccc(NC(=O)N2CCN3C(=O)[C@H](CC4CCCCC4)NC(=O)[C@H]3C2)c1 [CBK289615]
viability at 28.5 h, 10 µM: 117%

COc1ccc(C[C@@H]2NC(=O)[C@H]3CN(C(=O)c4cccn4C)CCN3C2=O)cc1 [CBK289616]
viability at 28.5 h, 10 µM: 93.4%

COC(=O)[C@@H](C)NC(=O)[C@@H]1CN(C(=O)c2cccc(F)c2)CCN1C(C)=O [CBK289620]
viability at 28.5 h, 10 µM: 91.3%

COC(=O)[C@@H](C)NC(=O)[C@@H]1CN(C(=O)c2cccc(F)c2)CCN1C(=O)C1CCCCC1 [CBK289621]
viability at 28.5 h, 10 µM: 87.4%

COC(=O)[C@@H](C)NC(=O)[C@@H]1CN(S(C)(=O)=O)CCN1C(=O)c1cccs1 [CBK289623]
viability at 28.5 h, 10 µM: 89.6%

COC(=O)[C@@H](C)NC(=O)[C@H]1CN(C(=O)c2cccnc2)CCN1C(=O)NC1CCCCC1 [CBK289632]
viability at 28.5 h, 10 µM: 86%

CC(=O)N1CCN(C(=O)NC(C)C)C[C@@H]1C(=O)N[C@@H](CC1CCCCC1)C(N)=O [CBK289633]
viability at 28.5 h, 10 µM: 91.8%

O=C1NCCC[C@@H]1NC(=O)[C@H]1CN(C(=O)c2ccccc2)CCN1C(=O)c1cccnc1 [CBK289634]
viability at 28.5 h, 10 µM: 108%

C[C@@H](c1ccccc1)N1C(=O)[C@@H]2CN(S(=O)(=O)c3cccs3)CCN2C1=O [CBK289635]
viability at 28.5 h, 10 µM: 91.3%

C[C@@H](c1ccccc1)N1C(=O)[C@@H]2CN(C(=O)COCC(=O)O)CCN2C1=O [CBK289636]
viability at 28.5 h, 10 µM: 94.3%

C[C@H](c1ccccc1)N1C(=O)[C@@H]2CN(C(=O)CC(C)(C)C)CCN2C1=O [CBK289638]
viability at 28.5 h, 10 µM: 89.5%

CC(C)(C)c1cc(CC2(NCc3ccco3)COC2)no1 [CBK289642]
viability at 28.5 h, 10 µM: 108%

c1ccc(CNC2(Cc3cc(-c4ccccn4)on3)COC2)cc1 [CBK289643]
viability at 28.5 h, 10 µM: 87.9%

Oc1cccc(-c2cc(CC3(NCc4ccc(F)cc4)COC3)no2)c1 [CBK289646]
viability at 28.5 h, 10 µM: 108%

N#Cc1ccc(CNC2(Cc3cc(CO)on3)COC2)cc1 [CBK289647]
viability at 28.5 h, 10 µM: 104%

O=C(N[C@@H](Cn1cc(Cl)c(=O)[nH]c1=O)C(=O)O)C1CCCCC1 [CBK289648]
viability at 28.5 h, 10 µM: 98.7%

O=C(N[C@@H](Cn1cc(Cl)c(=O)[nH]c1=O)C(=O)O)c1cccc(F)c1 [CBK289650]
viability at 28.5 h, 10 µM: 118%

O=C(O)COCC(=O)N1C[C@@H]2OCC(=O)N(Cc3ccccc3)[C@@H]2C1 [CBK289652]
viability at 28.5 h, 10 µM: 101%

Oc1ccccc1CNC1(Cc2cc(-c3ccc(F)cc3)on2)COC1 [CBK289655]
viability at 28.5 h, 10 µM: 95.8%

CC(C)(O)c1cc(CC2(NCC3CCCCC3)COC2)no1 [CBK289656]
viability at 28.5 h, 10 µM: 89.7%

O=C(N[C@@H](Cn1cc(Cl)c(=O)[nH]c1=O)C(=O)O)C1CCCC1 [CBK289658]
viability at 28.5 h, 10 µM: 113%

O=C(N[C@@H](Cn1cc(F)c(=O)[nH]c1=O)C(=O)O)C1CCCC1 [CBK289660]
viability at 28.5 h, 10 µM: 109%

O=C(N[C@@H](Cn1cc(F)c(=O)[nH]c1=O)C(=O)O)C1CCCCC1 [CBK289661]
viability at 28.5 h, 10 µM: 89.2%

CCc1cn(C[C@H](NC(=O)C2CCC2)C(=O)O)c(=O)[nH]c1=O [CBK289663]
viability at 28.5 h, 10 µM: 97.1%

COc1ccnc(N2C[C@@H]3OCC(=O)N(Cc4ccccc4)[C@@H]3C2)n1 [CBK289666]
viability at 28.5 h, 10 µM: 91%

CC(=O)N1C[C@@H]2OCC(=O)N(Cc3nccn3C)[C@@H]2C1 [CBK289668]
viability at 28.5 h, 10 µM: 90.6%

Cc1cc(C(=O)Nc2ccc([C@@H](O)[C@H]3COCC(=O)N3Cc3ccccc3)cc2)n(C)n1 [CBK289669]
viability at 28.5 h, 10 µM: 89%

CCNC1(Cc2cc(C(=O)N3CCCCC3)on2)COC1 [CBK289671]
viability at 28.5 h, 10 µM: 84.2%

N#Cc1ccc(CNC2(Cc3cc(C(=O)N4CCCCC4)on3)COC2)cc1 [CBK289672]
viability at 28.5 h, 10 µM: 87%

COc1ccc(CN2C(=O)COC[C@@H]2[C@H](O)c2ccc(NC(C)=O)cc2)cc1 [CBK289674]
viability at 28.5 h, 10 µM: 95.6%

COc1ccc(CN2C(=O)COC[C@@H]2[C@H](O)c2ccc(NC(=O)c3ccc(OC)cc3)cc2)cc1 [CBK289675]
viability at 28.5 h, 10 µM: 95.9%

CCN1C(=O)COC[C@@H]1[C@H](O)c1ccc(NC(=O)Cc2ccc(OC)cc2)cc1 [CBK289676]
viability at 28.5 h, 10 µM: 90.2%

CCC(CC)C(=O)Nc1ccc([C@@H](O)[C@H]2COCC(=O)N2Cc2ccc(OC)cc2)cc1 [CBK289677]
viability at 28.5 h, 10 µM: 102%

CC(=O)Nc1ccc([C@@H](O)[C@H]2COCC(=O)N2Cc2ccc(C(F)(F)F)cc2)cc1 [CBK289678]
viability at 28.5 h, 10 µM: 92.7%

O=C(c1ccno1)N1C[C@@H]2OCC(=O)N(CC3CC3)[C@@H]2C1 [CBK289680]
viability at 28.5 h, 10 µM: 83.5%

O=C(c1cnccn1)N1C[C@@H]2OCC(=O)N(CC3CC3)[C@@H]2C1 [CBK289681]
viability at 28.5 h, 10 µM: 91.3%

O=C(Nc1ccccc1)N1C[C@@H]2OCC(=O)N(Cc3ccc(F)cc3)[C@@H]2C1 [CBK289683]
viability at 28.5 h, 10 µM: 82%

CCC(CC)C(=O)Nc1ccc([C@@H](O)[C@H]2COCC(=O)N2CC)cc1 [CBK289684]
viability at 28.5 h, 10 µM: 107%

CCN1C(=O)COC[C@@H]1[C@H](O)c1ccc(NC(=O)COc2ccccc2)cc1 [CBK289685]
viability at 28.5 h, 10 µM: 96.6%

CCN1C(=O)COC[C@@H]1[C@H](O)c1ccc(NC(=O)c2ccc(C#N)cc2)cc1 [CBK289689]
viability at 28.5 h, 10 µM: 91.6%

O=C(c1cccnc1)N1C[C@@H]2OCC(=O)N(Cc3ccc(F)cc3)[C@@H]2C1 [CBK289691]
viability at 28.5 h, 10 µM: 96.1%
